What follows are compounds tested against BRD4-BD1 (44-164) (Homo sapiens (Human), UniProt O60885) (assay: Alphascreen binding assay BRD4-BD1). Details: BRD4(1) H4; read-out: Biochemical activity (IC50 μM) BRD4(1) H4.
Outline: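 AlphaScreen signal (nickel acceptor, streptavidin donor beads, 7.5 µg/ml each, read 30 min after addition) reports displacement of biotin-H4 K5/K8/K12/K16-acetyl peptide from His-BRD4 BD1 (44-164) or tandem BD12 (1-477).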
Compound C=CCn1cc(-c2cn(S(=O)(=O)C3CC3)c3cc(-c4c(C)noc4C)cnc23)cn1 [P-0139, 4-[3-(1-allylpyrazol-4-yl)-1-cyclopropyl-sulfonyl-pyrrolo[3,2-b]pyridin-6-yl]-3,5-dimethyl-isoxazole] has an IC50 of under 1 µM.
Compound Cc1noc(C)c1-c1cnc2ccn(S(=O)(=O)N3CCCCC3)c2c1 [P-0067, 3,5-dimethyl-4-[1-(1-piperidylsulfonyl)pyrrolo[3,2-b]pyridin-6-yl]isoxazole] has an IC50 of under 1 µM.
With Cc1noc(C)c1-c1cnc2[nH]c(C)c(C(O)c3cccnc3)c2c1 (stereo not shown) [P-0009, [5-(3,5-dimethylisoxazol-4-yl)-2-methyl-1H-pyrrolo[2,3-b]pyridin-3-yl]-(3-pyridyl)methanol] the IC50 was under 1 µM.
Compound Cc1noc(C)c1-c1cnc2c(-c3cnn(C(F)F)c3)cn(S(=O)(=O)CCC(F)(F)F)c2c1 [P-0136, 4-[3-[1-(difluoro-methyl)pyrazol-4-yl]-1-(3,3,3-trifluoro-propylsulfonyl)pyrrolo[3,2-b]pyridin-6-yl]-3,5-dimethyl-isoxazole] has an IC50 of under 1 µM.
Cc1noc(C)c1-c1cnc2[nH]cc(C3=CCC(F)(F)CC3)c2c1 [P-0029, 4-[3-(4,4-difluorocyclo-hexen-1-yl)-1H-pyrrolo[2,3-b]pyridin-5-yl]-3,5-dimethyl-isoxazole] was tested, and the IC50 was under 1 µM.
Compound Cc1noc(C)c1-c1cnc2[nH]cc(Cc3ccccc3Cl)c2c1 [P-0026, 4-[3-[(2-chlorophenyl)methyl]-1H-pyrrolo[2,3-b]pyridin-5-yl]-3,5-dimethyl-isoxazole] has an IC50 of under 1 µM.
For CCn1cc(-c2cn(S(=O)(=O)c3ccccc3)c3cc(-c4c(C)noc4C)cnc23)cn1 [P-0124, 4-[1-(benzenesulfonyl)-3-(1-ethylpyrazol-4-yl)pyrrolo[3,2-b]pyridin-6-yl]-3,5-dimethyl-isoxazole], the IC50 was under 1 µM.
Cc1noc(C)c1-c1cnc2c(I)cn(C(C)c3ccccc3)c2c1 (stereo not shown) [P-0224, 4-[3-iodo-1-(1-phenylethyl)pyrrolo[3,2-b]pyridin-6-yl]-3,5-dimethyl-isoxazole] was tested, and the IC50 was under 1 µM.
Work on Cc1noc(C)c1-c1cnc2[nH]cc(S(=O)(=O)c3cccc(F)c3)c2c1 [P-0143, 4-[3-(3-fluorophenyl)sulfonyl-1H-pyrrolo[2,3-b]pyridin-5-yl]-3,5-dimethyl-isoxazole] yielded an IC50 of under 1 µM.
Cc1noc(C)c1-c1cnc2c(-c3cnn(C)c3)cn(CC3(F)CCCCC3)c2c1 [P-0212, 4-[1-[(1-fluorocyclohexyl)methyl]-3-(1-methylpyrazol-4-yl)pyrrolo[3,2-b]pyridin-6-yl]-3,5-dimethyl-isoxazole] gave an IC50 of under 1 µM.
In the case of Cc1noc(C)c1-c1cnc2[nH]cc(Cc3cccnc3)c2c1 [P-0003, 3,5-dimethyl-4-[3-(3-pyridylmethyl)-1H-pyrrolo[2,3-b]pyridin-5-yl]isoxazole], the IC50 is reported as under 1 µM.
With COCCn1cc(-c2cn(C(C)c3ccccc3)c3cc(-c4c(C)noc4C)cnc23)cn1 (stereo not shown) [P-0203, 4-[3-[1-(2-methoxyethyl)pyrazol-4-yl]-1-(1-phenyl-ethyl)pyrrolo[3,2-b]pyridin-6-yl]-3,5-dimethyl-isoxazole] the IC50 was under 1 µM.
With Cc1noc(C)c1-c1cnc2ccn(C(C)c3ccccc3)c2c1 (stereo not shown) [P-0159, 3,5-dimethyl-4-[1-(1-phenylethyl)pyrrolo[3,2-b]pyridin-6-yl]isoxazole] the IC50 was under 1 µM.
In the case of Cc1noc(C)c1-c1cnc2c(-c3cnn(C)c3)cn(C(C(=O)NC3CC3)c3ccccc3)c2c1 (stereo not shown) [P-0207, N-cyclopropyl-2-[6-(3,5-dimethylisoxazol-4-yl)-3-(1-methylpyrazol-4-yl)pyrrolo[3,2-b]pyridin-1-yl]-2-phenyl-acetamide], the IC50 is reported as under 1 µM.
Cc1noc(C)c1-c1cnc2c(-c3cnn(C)c3)cn(S(=O)(=O)c3cccc(F)c3)c2c1 [P-0122, 4-[1-(3-fluorophenyl)sulfonyl-3-(1-methyl-pyrazol-4-yl)pyrrolo[3,2-b]pyridin-6-yl]-3,5-dimethyl-isoxazole] was tested, and the IC50 was under 1 µM.
Cc1noc(C)c1-c1cnc2c(c1)c(Sc1ccccc1)cn2-c1cnn(C)c1 [P-0184, 3,5-dimethyl-4-[1-(1-methylpyrazol-4-yl)-3-phenylsulfanyl-pyrrolo[2,3-b]pyridin-5-yl]isoxazole] gave an IC50 of under 1 µM.
With CCn1cc(-c2cn(C(C)c3ccccc3)c3cc(-c4c(C)noc4C)cnc23)cn1 (stereo not shown) [P-0200, 4-[3-(1-ethylpyrazol-4-yl)-1-(1-phenylethyl)pyrrolo[3,2-b]pyridin-6-yl]-3,5-dimethyl-isoxazole] the IC50 was under 1 µM.
With Cc1noc(C)c1-c1cnc2[nH]cc(Cc3c(F)cccc3Cl)c2c1 [P-0027, 4-[3-[(2-chloro-6-fluoro-phenyl)methyl]-1H-pyrrolo[2,3-b]pyridin-5-yl]-3,5-dimethyl-isoxazole] the IC50 was under 1 µM.
Cc1noc(C)c1-c1cnc2c(-c3cnn(C(F)F)c3)cn(C(C)c3ccccc3)c2c1 (stereo not shown) [P-0177, 4-[3-[1-(difluoromethyl)pyrazol-4-yl]-1-(1-phenylethyl)pyrrolo[3,2-b]pyridin-6-yl]-3,5-dimethyl-isoxazole] was tested, and the IC50 was under 1 µM.
Compound Cc1noc(C)c1-c1cnc2[nH]cc(C(O)C3CCC(F)(F)CC3)c2c1 (stereo not shown) [P-0030, (4,4-difluorocyclohexyl)-[5-(3,5-dimethylisoxazol-4-yl)-1H-pyrrolo[2,3-b]pyridin-3-yl]methanol] has an IC50 of under 1 µM.
Work on Cc1noc(C)c1-c1cnc2ccn(S(=O)(=O)c3ccccc3)c2c1 [P-0038, 4-[1-(benzenesulfonyl)pyrrolo[3,2-b]pyridin-6-yl]-3,5-dimethyl-isoxazole] yielded an IC50 of under 1 µM.
For CCc1[nH]c2ncc(-c3c(C)noc3C)cc2c1C(OC)C1CCC(F)(F)CC1 (stereo not shown) [P-0045, 4-[3-[(4,4-difluorocyclohexyl)-methoxy-methyl]-2-ethyl-1H-pyrrolo[2,3-b]pyridin-5-yl]-3,5-dimethyl-isoxazole], the IC50 was under 1 µM.
Cc1noc(C)c1-c1cnc2c(-c3cnn(CC(F)(F)F)c3)cn(S(=O)(=O)c3ccccc3)c2c1 [P-0146, 4-[1-(benzenesulfonyl)-3-[1-(2,2,2-trifluoroethyl)pyrazol-4-yl]pyrrolo[3,2-b]pyridin-6-yl]-3,5-dimethyl-isoxazole] gave an IC50 of under 1 µM.
In the case of Cc1noc(C)c1-c1cnc2[nH]cc(C(=O)C3CCC(F)(F)CC3)c2c1 [P-0031, (4,4-difluorocyclohexyl)-[5-(3,5-dimethylisoxazol-4-yl)-1H-pyrrolo[2,3-b]pyridin-3-yl]methanone], the IC50 is reported as under 1 µM.
Cc1noc(C)c1-c1cnc2c(-c3ccccc3)cn(S(=O)(=O)c3ccccc3)c2c1 [P-0077, 4-[1-(benzenesulfonyl)-3-phenyl-pyrrolo[3,2-b]pyridin-6-yl]-3,5-dimethyl-isoxazole] showed an IC50 of under 1 µM.
With Cc1noc(C)c1-c1cnc2c(I)cn(S(=O)(=O)c3ccccc3)c2c1 [P-0076, 4-[1-(benzenesulfonyl)-3-iodo-pyrrolo[3,2-b]pyridin-6-yl]-3,5-dimethyl-isoxazole] the IC50 was under 1 µM.
Cc1noc(C)c1-c1cnc2c(-c3cn[nH]c3)cn(S(=O)(=O)c3ccccc3)c2c1 [P-0163, 4-[1-(benzenesulfonyl)-3-(1H-pyrazol-4-yl)pyrrolo[3,2-b]pyridin-6-yl]-3,5-dimethyl-isoxazole] was tested, and the IC50 was under 1 µM.
For Cc1noc(C)c1-c1cnc2c(-c3cnn(C4CCOC4)c3)cn(S(=O)(=O)c3ccccc3)c2c1 (stereo not shown) [P-0148, 4-[1-(benzenesulfonyl)-3-(1-tetrahydrofuran-3-ylpyrazol-4-yl)pyrrolo[3,2-b]pyridin-6-yl]-3,5-dimethyl-isoxazole], the IC50 was under 1 µM.
COC(c1c(F)cccc1Cl)c1c[nH]c2ncc(-c3c(C)noc3C)cc12 (stereo not shown) [P-0014, 4-[3[(2-chloro-6-fluoro-phenyl)-methoxy-methyl]-1H-pyrrolo[2,3-b]pyridin-5-yl]-3,5-dimethyl-isoxazole] gave an IC50 of under 1 µM.
Compound C=CCn1cc(-c2cn(S(=O)(=O)C3CCCC3)c3cc(-c4c(C)noc4C)cnc23)cn1 [P-0128, 4-[3-(1-allylpyrazol-4-yl)-1-cyclopentyl-sulfonyl-pyrrolo[3,2-b]pyridin-6-yl]-3,5-dimethyl-isoxazole] has an IC50 of under 1 µM.
Compound Cc1noc(C)c1-c1cnc2c(-c3cnn(C)c3)cn(S(=O)(=O)c3ccccc3F)c2c1 [P-0121, 4-[1-(2-fluorophenyl)sulfonyl-3-(1-methyl-pyrazol-4-yl)pyrrolo[3,2-b]pyridin-6-yl]-3,5-dimethyl-isoxazole] has an IC50 of under 1 µM.
In the case of C=CCn1cc(-c2cn(S(=O)(=O)CCC(F)(F)F)c3cc(-c4c(C)noc4C)cnc23)cn1 [P-0129, 4-[3-(1-allylpyrazol-4-yl)-1-(3,3,3-trifluoro-propylsulfonyl)pyrrolo[3,2-b]pyridin-6-yl]-3,5-dimethyl-isoxazole], the IC50 is reported as under 1 µM.
C=CCn1cc(-c2cn(S(=O)(=O)CCC)c3cc(-c4c(C)noc4C)cnc23)cn1 [P-0137, 4-[3-(1-allylpyrazol-4-yl)-1-propylsulfonyl-pyrrolo[3,2-b]pyridin-6-yl]-3,5-dimethyl-isoxazole] showed an IC50 of under 1 µM.
Cc1noc(C)c1-c1cnc2[nH]c(-c3ccc(F)cc3)c(Cc3cccnc3)c2c1 [P-0007, 4-[2-(4-fluorophenyl)-3-(3-pyridylmethyl)-1H-pyrrolo[2,3-b]pyridin-5-yl]-3,5-dimethyl-isoxazole] gave an IC50 of under 1 µM.
For Cc1noc(C)c1-c1cnc2c(-c3cnc(C4CC4)nc3)cn(S(=O)(=O)C3CCCC3)c2c1 [P-0103, 4-[1-cyclopentyl-sulfonyl-3-(2-cyclopropylpyrimidin-5-yl)pyrrolo[3,2-b]pyridin-6-yl]-3,5-dimethyl-isoxazole], the IC50 was under 1 µM.
With COc1ncc(F)cc1Cc1c[nH]c2ncc(-c3c(C)noc3C)cc12 [P-0028, 4-[3-[(5-fluoro-2-methoxy-3-pyridyl)methyl)-1H-pyrrolo[2,3-b]pyridin-5-yl]-3,5-dimethyl-isoxazole] the IC50 was under 1 µM.
With Cc1noc(C)c1-c1cnc2c(-c3cccnc3)cn(S(=O)(=O)c3ccccc3)c2c1 [P-0084, 4-[1-(benzenesulfonyl)-3-(3-pyridyl)pyrrolo[3,2-b]pyridin-6-yl]-3,5-dimethyl-isoxazole] the IC50 was under 1 µM.

Reference: US10519177B2, “Heterocyclic compounds and uses thereof” (Plexxikon Inc., priority 2013, dated 2019)
